Three compounds from US20160115200A1, “New Use for JNK Inhibitor Molecules for Treatment of Various Diseases” (XIGEN INFLAMMATION LTD., priority 2013, published 2016) can be followed below.

Square brackets hold non-standard residues; d marks the D form. Ends that are not written are not given here.

Series [1] concerns established type II collagen arthritis in rats. The settings on record: Dex 0.05 mg/kg IV QD.
The test system of series [2] is endotoxins-induced uveitis albino rat model. The experiment in a line: Endotoxins-induced uveitis (EIU), single intravenous injection, clinical scoring 24 h after LPS. The series is classed as in vivo. Set-up: key to EIU clinical score, median: clinical score per eye, 0 to 4 scale. The settings on record: 20 μg/eye sub-conjunctival, 24 hours after LPS. The procedure:
The aim of this study was to determine the effects of single intravenous injections of SEQ ID NO: 172 (0.015, 0.18, and 1.80 mg/kg) on the inflammatory response in an endotoxins-induced uveitis albino rat model and to compare these affects to those obtained with prior art JNK inhibitor of SEQ ID NO: 197 (2 mg/kg). As a further control served phosphate sodic dexamethasone.
Sixty (60) male Lewis rats were randomly divided into six (6) groups of ten (10) animals each. EIU was induced by footpad injection of lipopolysaccharide (LPS, 1 mg/kg). NaCl (0.9%), SEQ ID NO: 197 at 2 mg/kg and SEQ ID NO: 172 at three concentrations (1.80 mg/kg, 0.18 mg/kg and 0.015 mg/kg) were administered by intravenous injection. Phosphate sodic dexamethasone (20 μg/eye) was administered by sub-conjunctival injection in both eyes. 24 hours after LPS injection, inflammatory response was evaluated by clinical scoring.
The intensity of clinical ocular inflammation was scored on a scale from 0 to 4 for each eye: […]

Series [3] relates to Hela cells. As to the kind of experiment: Internalization of TAT derived transporters, 24 hours, fluorescence of cell extracts (FIG. 6). The series is classed as cell-based. The settings on record: Y in position 2. As for the experimental part: The transporter sequences analyzed correspond to SEQ ID NOs: 52-94 plus SEQ ID NOs: 45, 47, 46, 43 and 99 (FIG. 6a) and SEQ ID NOs: 100-147 (FIG. 6b). […] Hela cells were incubated 24 hours in 96 well plate with […] of the respective transporters. The cells were then washed twice with an acidic buffer (0.2M Glycin, 0.15M NaCl, pH 3.0) and twice with PBS. Cells were broken by the addition of RIPA lysis buffer. The relative amount of internalized peptide was then determined by reading the fluorescence intensity (Fusion Alpha plate reader; PerkinElmer) of each extract followed by background subtraction.
Hela cells were incubated 24 hours in 96 well plate with […] of the r3-L-TAT-derived transporters. The cells were then washed twice with an acidic buffer (0.2M Glycin, 0.15M NaCl, pH 3.0) and twice with PBS. Cells were broken by the addition of RIPA lysis buffer. The relative amount of internalized peptide was then determined by reading the fluorescence intensity (Fusion Alpha plate reader; PerkinElmer) of each extract followed by background subtraction

Series [4] concerns IMQ-induced psoriasis in BALB/c mice. The experiment in a line: Imiquimod-induced psoriasis in mice, ear histopathology. The settings on record: Prednisolone 10 mg/kg PO daily; for inflammation of the ear (average histopathology grade) vs vehicle-IMQ group: statistically significant. The series is classed as in vivo, mouse. The procedure: Female BALB/cAnNCrl mice (Charles River, age 8 to 10 weeks at study start) have been assigned to the following groups (treatment schedule):
In this experiment, two positive controls have been utilized. Firstly, Prednisolone at 10 mg/kg (vehicle: 1% Hydroxyethylcellulose, 0.25% Polysorbate 80, and 0.05% Antifoam in purified water) has been dosed daily and orally (group “Prednisolone”). Secondly, Dexamethasone has been administered at 0.5 mg/kg (vehicle: sterile 0.9% NaCl) on days 1, 4 and 7 via intravenous route.
On day 8, animals have been sacrificed and the tissue (ear) has been fixed in 10% neutral buffered formalin. For histopathology hematoxylin-and-eosin-stained sections (cross cut) have been prepared and microscopic evaluation on the collected tissues from all animals has been performed. Methods and end-points for histopathology were similarly described in the van der Fits (2009) paper in that inflammation, epidermal hyperplasia, epidermal hyperkeratosis (rather than parakeratosis) were observed and recorded for severity grade, whereby the respective methodology from Van der Fits et al. (The Journal of Immunology 2009, 182, P. 5836-5845) is hereby incorporated by reference. Histopathology grading scores were excluded for either skin or ear in animals with secondary inflammatory processes (full thickness epidermal ulcers). Scores were averaged by group and standard deviation and statistical significance were calculated. […] Formalin-fixed, paraffin embedded skin from the dorsal surface of the mouse (BALB/c) was stained with hematoxylin and eosin (H&E) stain and assessed microscopically. An important difference from the above reference and to describe in more detail the observations of the present study: Hyperkeratosis can be defined specifically as orthokeratotic (no retained nuclei) or parakeratotic (retained nuclei). Either can occur normally in various anatomical locations and depending on species; however, both conditions are well defined in particular disease states. The van der Fits paper describes their Imiquimod (IMQ)-induced psoriasis model as causing parakeratotic hyperkeratosis similar to what is seen in the human condition, and that was a defined end-point for this study. However, the Danilenko et al. (Veterinary Pathology 2008 45:563) has shown that many rodent psoriasis models have orthokeratotic hyperkeratosis. […] The more general term ‘hyperkeratosis’ was used for grading end-points and describe in the text what type was seen (primarily orthokeratotic).
1=MI=minimal 2=SL=slight 3=M0=moderate 4=MA=marked 5=SE=severe

In the case of `C[C@@H]1C[C@H]2[C@@H]3CCC4=CC(=O)C=C[C@]4(C)[C@@]3(F)[C@@H](O)C[C@]2(C)[C@@]1(O)C(=O)CO` [dexamethasone, reference compound], in series [1], the “spleen weights relative to body weight vs disease controls” value was “significantly (p<0.05 by ANOVA) reduced” and the “thymus weights relative to body weight vs disease controls” value is listed as “significantly (p<0.05 by ANOVA) reduced”. For the same compound, in series [2], the “EIU clinical score, mean±SEM” value was 0.8±0.2; the “EIU clinical score, median” value was 0.5; the “reduction of clinical scores vs vehicle” value came out at 79%.
As for “rYKRrQRRr ([dR]YKR[dR]QRR[dR]) [SEQ ID NO: 142]”, the “transporter activity and kinetics of transport (position scan)” value in series [3] was “highest transporter activity”.
`C[C@]12C=CC(=O)C=C1CC[C@@H]1[C@@H]2[C@@H](O)C[C@@]2(C)[C@H]1CC[C@]2(O)C(=O)CO` [Prednisolone, reference compound]: in series [4], the “epidermal hyperkeratosis of the ear, average grades vs vehicle-IMQ group” value was “minimally decreased average grades” and the “inflammation of the ear (average histopathology grade) vs vehicle-IMQ group” value is “decreased inflammation of the ear”. In series [4] (not statistically significant), the “epidermal hyperplasia of the ear vs vehicle-IMQ group” value is given as “below that of the vehicle-IMQ dose group”. The “inflammation of the ear (average histopathology grade) vs vehicle-IMQ group” value in series [4] (listed as prednisolone) was “significant differences from the vehicle control group”.
